Results from ChEMBL document CHEMBL1201862, “PubChem BioAssay data set” (2004).
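Dose response: 5 concentrations. Exposure: 48 h. Format: 96-well plates. Endpoint: linear interpolation; highest concentration if not reached. Abbreviation: GI50, concentration required for 50% inhibition of growth.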 Active and inactive are the calls of the source. Cut-off read from the data, not from the text of the source: active = GI50 up to about 1.1 µM and inactive = higher.

Key:
Assay in all cases: NCI anticancer screen, dose series, 48 h
COLO 205 = tested on: COLO 205
SK-MEL-2 = tested on: SK-MEL-2
SNB-75 = tested on: SNB-75
RPMI-8226 = tested on: RPMI-8226
SR = tested on: SR
HT-29 = tested on: HT-29
SF-539 = tested on: SF-539
HOP-92 = tested on: HOP-92
NCI-H23 = tested on: NCI-H23
NCI-H460 = tested on: NCI-H460
HOP-62 = tested on: HOP-62
KM12 = tested on: KM12
DU-145 = tested on: DU-145
Malme-3M = tested on: Malme-3M
SK-MEL-5 = tested on: SK-MEL-5
OVCAR-5 = tested on: OVCAR-5
SK-MEL-28 = tested on: SK-MEL-28
A549 = tested on: A549
MOLT-4 = tested on: MOLT-4
SK-OV-3 = tested on: SK-OV-3
OVCAR-8 = tested on: OVCAR-8
LOX IMVI = tested on: LOX IMVI
HCC 2998 = tested on: HCC 2998
SF-295 = tested on: SF-295
SNB-19 = tested on: SNB-19
MDA-MB-435 = tested on: MDA-MB-435
HCT-15 = tested on: HCT-15
MCF7 = tested on: MCF7
OVCAR-3 = tested on: OVCAR-3
CAKI-1 = tested on: CAKI-1
BT-549 = tested on: BT-549
NCI-H226 = tested on: NCI-H226
CCRF-CEM = tested on: CCRF-CEM
EKVX = tested on: EKVX
Hs-578T = tested on: Hs-578T
SF-268 = tested on: SF-268
HCT-116 = tested on: HCT-116
786-0 = tested on: 786-0
ACHN = tested on: ACHN
UACC-62 = tested on: UACC-62
HL-60 = tested on: HL-60
K562 = tested on: K562
SW-620 = tested on: SW-620
SN12C = tested on: SN12C
TK-10 = tested on: TK-10
NCI/ADR-RES = tested on: NCI/ADR-RES
UO-31 = tested on: UO-31
MDA-MB-231 = tested on: MDA-MB-231
M14 = tested on: M14
NCI-H522 = tested on: NCI-H522
A498 = tested on: A498
OVCAR-4 = tested on: OVCAR-4
MDA-N = tested on: MDA-N
PC-3 = tested on: PC-3
UACC-257 = tested on: UACC-257
RXF 393 = tested on: RXF 393
U-251 = tested on: U-251
T47D = tested on: T47D
IGROV-1 = tested on: IGROV-1
LXFL 529 = tested on: LXFL 529
DMS-114 = tested on: DMS-114
KM-20L2 = tested on: KM-20L2
DMS-273 = tested on: DMS-273
SNB-78 = tested on: SNB-78

CCc1c(C)c(C#N)c(=S)n(C2OC(COC(C)=O)C(OC(C)=O)C(OC(C)=O)C2OC(C)=O)c1-c1ccccc1 (configuration not stated)
GI50 (COLO 205): > 31.6 µM (inactive)
GI50 (SK-MEL-2): 21.8 µM (inactive)
GI50 (SNB-75): 1.84 µM (inactive)
GI50 (RPMI-8226): 82 µM (inactive)
GI50 (SR): > 31.6 µM (inactive)
GI50 (HT-29): > 31.6 µM (inactive)
GI50 (SF-539): 23.6 µM (inactive)
GI50 (HOP-92): 22.1 µM (inactive)
GI50 (NCI-H23): > 31.6 µM (inactive)
GI50 (NCI-H460): > 31.6 µM (inactive)
GI50 (HOP-62): 15.8 µM (inactive)
GI50 (KM12): > 31.6 µM (inactive)
GI50 (DU-145): > 31.6 µM (inactive)
GI50 (Malme-3M): > 31.6 µM (inactive)
GI50 (SK-MEL-5): > 31.6 µM (inactive)
GI50 (OVCAR-5): > 31.6 µM (inactive)
GI50 (SK-MEL-28): > 31.6 µM (inactive)
GI50 (A549): > 31.6 µM (inactive)
GI50 (MOLT-4): > 31.6 µM (inactive)
GI50 (SK-OV-3): > 10 µM (inactive)
GI50 (OVCAR-8): > 31.6 µM (inactive)
GI50 (LOX IMVI): > 31.6 µM (inactive)
GI50 (HCC 2998): > 31.6 µM (inactive)
GI50 (SF-295): 16.2 µM (inactive)
GI50 (SNB-19): > 10 µM (inactive)
GI50 (MDA-MB-435): > 31.6 µM (inactive)
GI50 (HCT-15): > 31.6 µM
GI50 (MCF7): > 31.6 µM (inactive)
GI50 (OVCAR-3): > 31.6 µM (inactive)
GI50 (CAKI-1): 72.3 µM (inactive)
GI50 (BT-549): 52.1 µM (inactive)
GI50 (NCI-H226): 18.5 µM (inactive)
GI50 (CCRF-CEM): 33.7 µM (inactive)
GI50 (EKVX): 97.9 µM (inactive)
GI50 (Hs-578T): 20.7 µM (inactive)
GI50 (SF-268): > 31.6 µM (inactive)
GI50 (HCT-116): 26.7 µM (inactive)
GI50 (786-0): 20.7 µM (inactive)
GI50 (ACHN): 23.7 µM (inactive)
GI50 (UACC-62): > 10 µM (inactive)
GI50 (HL-60): > 100 µM (inactive)
GI50 (K562): 21.1 µM (inactive)
GI50 (SW-620): > 100 µM (inactive)
GI50 (SN12C): > 31.6 µM (inactive)
GI50 (TK-10): 22.1 µM (inactive)
GI50 (NCI/ADR-RES): > 31.6 µM (inactive)
GI50 (UO-31): > 24.6 µM (inactive)
GI50 (MDA-MB-231): 28.4 µM (inactive)
GI50 (M14): > 31.6 µM (inactive)
GI50 (NCI-H522): 26.1 µM (inactive)
GI50 (A498): 14.6 µM (inactive)
GI50 (OVCAR-4): > 31.5 µM (inactive)
GI50 (MDA-N): > 31.6 µM (inactive)
GI50 (PC-3): > 10 µM (inactive)
GI50 (UACC-257): > 31.6 µM (inactive)
GI50 (RXF 393): > 10 µM (inactive)
GI50 (U-251): 17.3 µM (inactive)
GI50 (T47D): > 31.6 µM (inactive)
GI50 (IGROV-1): 23.7 µM (inactive)

O=C(O)CCSC(=S)Nc1ccc([N+](=O)[O-])cc1
GI50 (COLO 205): 97.9 µM (inactive)
GI50 (SK-MEL-2): > 61.4 µM (inactive)
GI50 (SNB-75): 33.4 µM (inactive)
GI50 (RPMI-8226): 27.3 µM (inactive)
GI50 (LXFL 529): 46.6 µM (inactive)
GI50 (SR): 11.7 µM (inactive)
GI50 (HT-29): > 94 µM (inactive)
GI50 (SF-539): 39.5 µM (inactive)
GI50 (HOP-92): 29.9 µM (inactive)
GI50 (NCI-H23): > 66.7 µM (inactive)
GI50 (NCI-H460): > 82.6 µM (inactive)
GI50 (DMS-114): 37.7 µM (inactive)
GI50 (HOP-62): > 94.2 µM (inactive)
GI50 (KM12): > 80.2 µM (inactive)
GI50 (KM-20L2): > 100 µM (inactive)
GI50 (DU-145): 43.6 µM (inactive)
GI50 (Malme-3M): 38.2 µM (inactive)
GI50 (SK-MEL-5): 20.3 µM (inactive)
GI50 (OVCAR-5): > 100 µM (inactive)
GI50 (SK-MEL-28): 41.3 µM (inactive)
GI50 (A549): > 83.2 µM (inactive)
GI50 (MOLT-4): 8.38 µM (inactive)
GI50 (SK-OV-3): > 100 µM (inactive)
GI50 (DMS-273): 75.9 µM (inactive)
GI50 (OVCAR-8): 36.6 µM (inactive)
GI50 (LOX IMVI): 31.9 µM (inactive)
GI50 (HCC 2998): > 89.9 µM (inactive)
GI50 (SF-295): 40.5 µM (inactive)
GI50 (SNB-19): > 81.8 µM (inactive)
GI50 (MDA-MB-435): 24.4 µM (inactive)
GI50 (HCT-15): > 56.6 µM
GI50 (MCF7): 40.1 µM (inactive)
GI50 (OVCAR-3): 45 µM (inactive)
GI50 (CAKI-1): > 100 µM (inactive)
GI50 (BT-549): 36.2 µM (inactive)
GI50 (NCI-H226): > 75.2 µM (inactive)
GI50 (CCRF-CEM): 23.7 µM (inactive)
GI50 (EKVX): > 51.4 µM (inactive)
GI50 (Hs-578T): > 100 µM (inactive)
GI50 (SF-268): 34.5 µM (inactive)
GI50 (HCT-116): 60.7 µM (inactive)
GI50 (SNB-78): > 100 µM (inactive)
GI50 (786-0): > 100 µM (inactive)
GI50 (ACHN): 33.8 µM (inactive)
GI50 (UACC-62): 21.6 µM (inactive)
GI50 (HL-60): 20.8 µM (inactive)
GI50 (K562): 27.2 µM (inactive)
GI50 (SW-620): > 70.1 µM (inactive)
GI50 (SN12C): > 74 µM (inactive)
GI50 (TK-10): 51.8 µM (inactive)
GI50 (NCI/ADR-RES): 40.8 µM (inactive)
GI50 (UO-31): > 63.1 µM (inactive)
GI50 (MDA-MB-231): > 100 µM (inactive)
GI50 (M14): > 85.9 µM (inactive)
GI50 (NCI-H522): > 46.5 µM (inactive)
GI50 (A498): > 70.3 µM (inactive)
GI50 (OVCAR-4): > 56.5 µM (inactive)
GI50 (MDA-N): 23.1 µM (inactive)
GI50 (PC-3): 48.2 µM (inactive)
GI50 (UACC-257): 22.3 µM (inactive)
GI50 (RXF 393): > 60.8 µM (inactive)
GI50 (U-251): > 56.2 µM (inactive)
GI50 (T47D): 31.3 µM (inactive)
GI50 (IGROV-1): 42.9 µM (inactive)

CN(CCNC(=O)c1n[nH]c2c1ccc1ccccc12)CCNC(=O)c1n[nH]c2c1ccc1ccccc12
GI50 (COLO 205): 1.39 µM (inactive)
GI50 (SK-MEL-2): 8.2 µM (inactive)
GI50 (SNB-75): 1.85 µM (inactive)
GI50 (RPMI-8226): 2.18 µM (inactive)
GI50 (SR): 1.78 µM (inactive)
GI50 (HT-29): 2.01 µM (inactive)
GI50 (SF-539): 1.79 µM (inactive)
GI50 (HOP-92): 3.29 µM (inactive)
GI50 (NCI-H23): 1.96 µM (inactive)
GI50 (NCI-H460): 2.3 µM (inactive)
GI50 (HOP-62): 2.11 µM (inactive)
GI50 (KM12): 2.14 µM (inactive)
GI50 (DU-145): 2.49 µM (inactive)
GI50 (Malme-3M): 1.9 µM (inactive)
GI50 (SK-MEL-5): 1.71 µM (inactive)
GI50 (OVCAR-5): 1.81 µM (inactive)
GI50 (SK-MEL-28): 1.93 µM (inactive)
GI50 (A549): 2.07 µM (inactive)
GI50 (MOLT-4): 2.77 µM (inactive)
GI50 (SK-OV-3): 4.79 µM (inactive)
GI50 (OVCAR-8): 2.05 µM (inactive)
GI50 (LOX IMVI): 1.78 µM (inactive)
GI50 (HCC 2998): 1.91 µM (inactive)
GI50 (SF-295): 1.81 µM (inactive)
GI50 (SNB-19): 1.89 µM (inactive)
GI50 (MDA-MB-435): 1.79 µM (inactive)
GI50 (HCT-15): 13.7 µM
GI50 (MCF7): 1.87 µM (inactive)
GI50 (OVCAR-3): 2.05 µM (inactive)
GI50 (CAKI-1): 8.73 µM (inactive)
GI50 (BT-549): 20.2 µM (inactive)
GI50 (NCI-H226): 4.32 µM (inactive)
GI50 (CCRF-CEM): 2.2 µM (inactive)
GI50 (EKVX): 1.63 µM (inactive)
GI50 (Hs-578T): 1.96 µM (inactive)
GI50 (SF-268): 2.14 µM (inactive)
GI50 (HCT-116): 2.13 µM (inactive)
GI50 (786-0): 1.75 µM (inactive)
GI50 (ACHN): 1.83 µM (inactive)
GI50 (UACC-62): 1.92 µM (inactive)
GI50 (HL-60): 2.75 µM (inactive)
GI50 (K562): 2.26 µM (inactive)
GI50 (SW-620): 1.84 µM (inactive)
GI50 (SN12C): 1.8 µM (inactive)
GI50 (TK-10): 2.25 µM (inactive)
GI50 (NCI/ADR-RES): > 100 µM (inactive)
GI50 (UO-31): 7.35 µM (inactive)
GI50 (MDA-MB-231): 1.94 µM (inactive)
GI50 (M14): 1.82 µM (inactive)
GI50 (NCI-H522): 1.95 µM (inactive)
GI50 (A498): 7.28 µM (inactive)
GI50 (OVCAR-4): 1.82 µM (inactive)
GI50 (MDA-N): 1.86 µM (inactive)
GI50 (PC-3): 2.49 µM (inactive)
GI50 (UACC-257): 24.4 µM (inactive)
GI50 (RXF 393): 1.94 µM (inactive)
GI50 (U-251): 1.93 µM (inactive)
GI50 (T47D): 2.42 µM (inactive)
GI50 (IGROV-1): 1.77 µM (inactive)
